Measured values from patent US7105654B1, “Ethylene receptor gene from Glycine max and its use” (Monsanto Technology LLC, priority 2002, dated 2006).

System: soybean (Glycine max) seedlings
Experiment: ACC insensitivity assay (hypocotyl length of dark-grown seedlings)
Type: in vivo
Details: nontransformed soybean variety Asgrow A4922, grown in the dark; without ACC greater than 70 millimeters
Protocol: FIG. 4. R1 seeds from pMON47103, pMON47104, and pMON47108 were screened by an ACC insensitivity assay. […] Hypocotyl length was measured after six days and the average value presented.
Seeds were germinated in growth pouches (Mega International, Minneapolis, Minn.) containing 25 milliliters of 25 micromolar 1-aminocyclopropane-1-carboxylic acid (ACC) (Sigma Chemical Company) or in tissue culture boxes containing agar, water, and 20 micromolar ACC. Seedlings were kept in the dark for seven days. Growth of hypocotyl and root were scored in comparison to seedlings grown in water with all other conditions identical. An alternative protocol was used to measure growth in a solid matrix. Vermiculite was placed in a 4″×4″ plastic pot to ½″ below the rim. Twelve seeds were placed in each pot beneath the surface of the vermiculite. A solution of 500 micromolar ACC in distilled water was used to saturate the vermiculite. The pots were placed in a tray with additional solution to ensure a supply during incubation. The plants were incubated in a dark ventilated cabinet at room temperature for six days. On the sixth day, seedlings were removed from the vermiculite and rinsed. The hypocotyl length (from first lateral root to the bend of the apical hook) was measured and compared against wild type plants grown in the same environmental condition. […]

## NC1(C(=O)O)CC1 [ACC, 1-aminocyclopropane-1-carboxylic acid]
  average height of seedlings in response to applied ACC: less than 20 millimeters
